Patent publication US20200187502A1, “MICROBIOCIDAL OXADIAZOLE DERIVATIVES” (SYNGENTA PARTICIPATIONS AG, priority 2017, published 2020)

What was measured:
[1] = system: Puccinia recondita f. Sp. Tritici; assay: Fungicidal activity, wheat leaf disc curative (brown rust); assay type: in vivo; details: foliar, 200 ppm in the applied formulation, wheat leaf segments cv. Kanzler, curative (applied 1 day after inoculation), compared to untreated control, 6 to 8 days after application, read-out: disease control
Outline: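 Curative leaf-segment test, cv. Kanzler: spore inoculation, dark storage 19° C/75% RH, compound spray 1 day post-inoculation. Then 12 h light/12 h dark, 19° C, 75% RH. Read-out: % disease control vs untreated check, 6–8 d after application.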

[2] = system: Glomerella lacenarium (Colletotrichum lacenarium); assay: Fungicidal activity, liquid culture, cucumber preventative (anthracnose); assay type: cell-based; details: 20 ppm in the applied formulation, liquid culture in PDB, inhibition of growth measured photometrically 3 to 4 days after application, compared to untreated control, read-out: disease control
Outline: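 PDB broth seeded with cryo-stored conidia, added onto compound (DMSO solution) in 96-well plates; 24° C.; photometric growth read at 3–4 d post-application; % inhibition vs untreated check.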

[3] = system: Puccinia recondita f. Sp. Tritici; assay: Fungicidal activity, wheat leaf disc preventative (brown rust); assay type: in vivo; details: foliar, 200 ppm in the applied formulation, wheat leaf segments cv. Kanzler, compared to untreated control, 7 to 9 days after application, read-out: disease control
Outline: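 Preventative leaf-segment test: spray application of diluted formulated compound on wheat cv. Kanzler, spore inoculation after 1 day. Percent control relative to untreated segments rated 7 to 9 days post-application, with incubation at 19° C, 75% relative humidity, 12 h photoperiod.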

[4] = system: Phakopsora pachyrhizi; assay: Fungicidal activity, soybean leaf disc preventative (Asian soybean rust); assay type: in vivo; details: foliar, 200 ppm in the applied formulation, soybean leaf disks, compared to untreated control, 12 to 14 days after application, read-out: disease control
Outline: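 Read-out is percent disease control relative to untreated check discs, assessed once untreated discs show adequate disease, 12 to 14 days after application. Compounds, tested at 200 ppm in the applied formulation, are sprayed onto soybean leaf discs one day before inoculation with a spore suspension.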

COCCNC(=O)N(Cc1ccc(-c2noc(C(F)(F)F)n2)s1)OC [Compound 1.53, 1-methoxy-3-(2-methoxyethyl)-1-[[5-[5-(trifluoromethyl)-1,2,4-oxadiazol-3-yl]-2-thienyl]methyl]urea]
≥ 80%: pest or weed control at 200 ppm [1] | inhibition of growth at 20 ppm [2] | pest or weed control at 200 ppm [3] | pest or weed control at 200 ppm [4]

CCN(CC)C(=O)N(Cc1ccc(-c2noc(C(F)(F)F)n2)s1)OC [Compound 1.54, 1,1-diethyl-3-methoxy-3-[[5-[5-(trifluoromethyl)-1,2,4-oxadiazol-3-yl]-2-thienyl]methyl]urea]
≥ 80%: pest or weed control at 200 ppm [1] | inhibition of growth at 20 ppm [2] | pest or weed control at 200 ppm [3] | pest or weed control at 200 ppm [4]

CON(Cc1ccc(-c2noc(C(F)(F)F)n2)s1)C(=O)N1CCC2(CC2)C1 [Compound 1.58, N-methoxy-N-[[5-[5-(trifluoromethyl)-1,2,4-oxadiazol-3-yl]-2-thienyl]methyl]-5-azaspiro[2.4]heptane-5-carboxamide]
≥ 80%: pest or weed control at 200 ppm [1] | inhibition of growth at 20 ppm [2] | pest or weed control at 200 ppm [3] | pest or weed control at 200 ppm [4]

CC(C)(C)OC(=O)NCc1ccc(-c2noc(C(F)(F)F)n2)s1 [Compound 2.1, tert-butyl N-[[5-[5-(trifluoromethyl)-1,2,4-oxadiazol-3-yl]-2-thienyl]methyl]carbamate]
≥ 80%: pest or weed control at 200 ppm [1] | inhibition of growth at 20 ppm [2] | pest or weed control at 200 ppm [3] | pest or weed control at 200 ppm [4]

COCC(=O)NCc1ccc(-c2noc(C(F)(F)F)n2)s1 [Compound 2.3, 2-methoxy-N-[[5-[5-(trifluoromethyl)-1,2,4-oxadiazol-3-yl]-2-thienyl]methyl]acetamide]
≥ 80%: pest or weed control at 200 ppm [1] | inhibition of growth at 20 ppm [2] | pest or weed control at 200 ppm [3] | pest or weed control at 200 ppm [4]

COCCC(=O)NCc1ccc(-c2noc(C(F)(F)F)n2)s1 [Compound 2.4, 3-methoxy-N-[[5-[5-(trifluoromethyl)-1,2,4-oxadiazol-3-yl]-2-thienyl]methyl]propanamide]
≥ 80%: pest or weed control at 200 ppm [1] | inhibition of growth at 20 ppm [2] | pest or weed control at 200 ppm [3] | pest or weed control at 200 ppm [4]

CCC(=O)NCc1ccc(-c2noc(C(F)(F)F)n2)s1 [Compound 2.5, N-[[5-[5-(trifluoromethyl)-1,2,4-oxadiazol-3-yl]-2-thienyl]methyl]propanamide]
≥ 80%: pest or weed control at 200 ppm [1] | inhibition of growth at 20 ppm [2] | pest or weed control at 200 ppm [3] | pest or weed control at 200 ppm [4]

COC(C)C(=O)NCc1ccc(-c2noc(C(F)(F)F)n2)s1 (stereo not drawn) [Compound 2.6, 2-methoxy-N-[[5-[5-(trifluoromethyl)-1,2,4-oxadiazol-3-yl]-2-thienyl]methyl]propanamide]
≥ 80%: pest or weed control at 200 ppm [1] | inhibition of growth at 20 ppm [2] | pest or weed control at 200 ppm [3] | pest or weed control at 200 ppm [4]

CCC(C)C(=O)NCc1ccc(-c2noc(C(F)(F)F)n2)s1 (stereo not drawn) [Compound 2.7, 2-methyl-N-[[5-[5-(trifluoromethyl)-1,2,4-oxadiazol-3-yl]-2-thienyl]methyl]butanamide]
≥ 80%: pest or weed control at 200 ppm [1] | inhibition of growth at 20 ppm [2] | pest or weed control at 200 ppm [3] | pest or weed control at 200 ppm [4]

CCCC(=O)NCc1ccc(-c2noc(C(F)(F)F)n2)s1 [Compound 2.8, N-[[5-[5-(trifluoromethyl)-1,2,4-oxadiazol-3-yl]-2-thienyl]methyl]butanamide]
≥ 80%: pest or weed control at 200 ppm [1] | inhibition of growth at 20 ppm [2] | pest or weed control at 200 ppm [3] | pest or weed control at 200 ppm [4]

CC(C)C(=O)NCc1ccc(-c2noc(C(F)(F)F)n2)s1 [Compound 2.9, 2-methyl-N-[[5-[5-(trifluoromethyl)-1,2,4-oxadiazol-3-yl]-2-thienyl]methyl]propanamide]
≥ 80%: pest or weed control at 200 ppm [1] | inhibition of growth at 20 ppm [2] | pest or weed control at 200 ppm [3] | pest or weed control at 200 ppm [4]

COCCCC(=O)NCc1ccc(-c2noc(C(F)(F)F)n2)s1 [Compound 2.10, 4-methoxy-N-[[5-[5-(trifluoromethyl)-1,2,4-oxadiazol-3-yl]-2-thienyl]methyl]butanamide]
≥ 80%: pest or weed control at 200 ppm [1] | inhibition of growth at 20 ppm [2] | pest or weed control at 200 ppm [3] | pest or weed control at 200 ppm [4]

CC(=O)NCc1ccc(-c2noc(C(F)(F)F)n2)s1 [Compound 2.11, N-[[5-[5-(trifluoromethyl)-1,2,4-oxadiazol-3-yl]-2-thienyl]methyl]acetamide]
≥ 80%: pest or weed control at 200 ppm [1] | inhibition of growth at 20 ppm [2] | pest or weed control at 200 ppm [3] | pest or weed control at 200 ppm [4]

O=C(CC(F)(F)F)NCc1ccc(-c2noc(C(F)(F)F)n2)s1 [Compound 2.12, 3,3,3-trifluoro-N-[[5-[5-(trifluoromethyl)-1,2,4-oxadiazol-3-yl]-2-thienyl]methyl]propanamide]
≥ 80%: pest or weed control at 200 ppm [1] | inhibition of growth at 20 ppm [2] | pest or weed control at 200 ppm [3] | pest or weed control at 200 ppm [4]

O=C(NCc1ccc(-c2noc(C(F)(F)F)n2)s1)C1CC1 [Compound 3.1, N-[[5-[5-(trifluoromethyl)-1,2,4-oxadiazol-3-yl]-2-thienyl]methyl]cyclopropanecarboxamide]
≥ 80%: pest or weed control at 200 ppm [1] | inhibition of growth at 20 ppm [2] | pest or weed control at 200 ppm [3] | pest or weed control at 200 ppm [4]

O=C(NCc1ccc(-c2noc(C(F)(F)F)n2)s1)C1CC1(F)F (stereo not drawn) [Compound 3.2, 2,2-difluoro-N-[[5-[5-(trifluoromethyl)-1,2,4-oxadiazol-3-yl]-2-thienyl]methyl]cyclopropanecarboxamide]
≥ 80%: pest or weed control at 200 ppm [1] | inhibition of growth at 20 ppm [2] | pest or weed control at 200 ppm [3] | pest or weed control at 200 ppm [4]

O=C(NCc1ccc(-c2noc(C(F)(F)F)n2)s1)C1CCOC1 (stereo not drawn) [Compound 3.3, N-[[5-[5-(trifluoromethyl)-1,2,4-oxadiazol-3-yl]-2-thienyl]methyl]tetrahydrofuran-3-carboxamide]
≥ 80%: pest or weed control at 200 ppm [1] | inhibition of growth at 20 ppm [2] | pest or weed control at 200 ppm [3] | pest or weed control at 200 ppm [4]

O=C(NCc1ccc(-c2noc(C(F)(F)F)n2)s1)C1CCC1 [Compound 3.4, N-[[5-[5-(trifluoromethyl)-1,2,4-oxadiazol-3-yl]-2-thienyl]methyl]cyclobutanecarboxamide]
≥ 80%: pest or weed control at 200 ppm [1] | inhibition of growth at 20 ppm [2] | pest or weed control at 200 ppm [3] | pest or weed control at 200 ppm [4]

CC1CC1C(=O)NCc1ccc(-c2noc(C(F)(F)F)n2)s1 (stereo not drawn) [Compound 3.5, 2-methyl-N-[[5-[5-(trifluoromethyl)-1,2,4-oxadiazol-3-yl]-2-thienyl]methyl]cyclopropanecarboxamide]
≥ 80%: pest or weed control at 200 ppm [1] | inhibition of growth at 20 ppm [2] | pest or weed control at 200 ppm [3] | pest or weed control at 200 ppm [4]

CC1(C(=O)NCc2ccc(-c3noc(C(F)(F)F)n3)s2)CC1 [Compound 3.6, 1-methyl-N-[[5-[5-(trifluoromethyl)-1,2,4-oxadiazol-3-yl]-2-thienyl]methyl]cyclopropanecarboxamide]
≥ 80%: pest or weed control at 200 ppm [1] | inhibition of growth at 20 ppm [2] | pest or weed control at 200 ppm [3] | pest or weed control at 200 ppm [4]

CC1(C(=O)NCc2ccc(-c3noc(C(F)(F)F)n3)s2)COC1 [Compound 3.7, 3-methyl-N-[[5-[5-(trifluoromethyl)-1,2,4-oxadiazol-3-yl]-2-thienyl]methyl]oxetane-3-carboxamide]
≥ 80%: pest or weed control at 200 ppm [1] | inhibition of growth at 20 ppm [2] | pest or weed control at 200 ppm [3] | pest or weed control at 200 ppm [4]

O=C(NCc1ccc(-c2noc(C(F)(F)F)n2)s1)C1CCCO1 (stereo not drawn) [Compound 3.8, N-[[5-[5-(trifluoromethyl)-1,2,4-oxadiazol-3-yl]-2-thienyl]methyl]tetrahydrofuran-2-carboxamide]
≥ 80%: pest or weed control at 200 ppm [1] | inhibition of growth at 20 ppm [2] | pest or weed control at 200 ppm [3] | pest or weed control at 200 ppm [4]

O=C(NCc1ccc(-c2noc(C(F)(F)F)n2)s1)c1ccccc1Cl [Compound 3.9, 2-chloro-N-[[5-[5-(trifluoromethyl)-1,2,4-oxadiazol-3-yl]-2-thienyl]methyl]benzamide]
≥ 80%: pest or weed control at 200 ppm [1] | inhibition of growth at 20 ppm [2] | pest or weed control at 200 ppm [3] | pest or weed control at 200 ppm [4]

O=C(CC1CC1)NCc1ccc(-c2noc(C(F)(F)F)n2)s1 [Compound 3.10, 2-cyclopropyl-N-[[5-[5-(trifluoromethyl)-1,2,4-oxadiazol-3-yl]-2-thienyl]methyl]acetamide]
≥ 80%: pest or weed control at 200 ppm [1] | inhibition of growth at 20 ppm [2] | pest or weed control at 200 ppm [3] | pest or weed control at 200 ppm [4]
